A short description of this series: Physical (polymorph) stability of suspension to bead milling and autoclaving, followed by XRPD. The format is physicochemical. How it is done: The following experiment evidences such stability of the claimed molecular crystal.
A 30 mg/ml suspension of the compound having Formula I (referred to as “BOL-303050”) was made in PBS-0.15% Polysorbate 80 and put in a vial. The contents of the vial were milled by 1 mm zirconia milling beads for 5 times, 2 minutes each at 2400 rpm in a DAC 150 FV Speedmixer and shaken to suspend the drug. An aliquot was withdrawn for XRPD (see FIG. 4, suspension milled). The withdrawn aliquot was centrifuged and dried before XRPD scan.
The remainder of the vial contents was autoclaved at 121° c. for 30 minutes. After autoclaving another sample was removed for XRPD (see FIG. 4, suspension milled and autoclaved). Sample was centrifuged and dried before XRPD scan.
To the remaining sample, 1 mm zirconia milling beads were added and the sample was milled 5 times, for 2 minutes each at 2400 rpm in a DAC 150 FV Speedmixer. After bead milling, a sample was removed for XRPD (see FIG. 4, suspension milled, autoclaved then milled again). Sample was centrifuged and dried before XRPD scan.
The remainder was autoclaved at 121° C. for 30 minutes (see FIG. 4, suspension milled, autoclaved, milled again, then autoclaved). Sample was centrifuged and dried before XRPD scan.
Samples were compared to the XRPD spectrum of the original API sample.

Molecules are shown by their SMILES.

Experimental findings from patent publication US20110237605A1, “Molecular Crystal of (4-(1,8-Naphthyridin-2-YL)Piperidin-1-YL)Pyrimidine Derivative” (priority 2010, published 2011) are described below.

Take `COc1ccc(S(=O)(=O)N[C@@H](CNc2nc(C)nc(N3CCC(c4ccc5c(n4)NCCC5)CC3)c2C)C(=O)O)cc1` [claimed novel drug polymorph, (S)-3-(2,5-dimethyl-6-(4-(5,6,7,8-tetrahydro-1,8-naphthyridin-2-yl)piperidin-1-yl)pyrimidin-4-ylamino)-2-(4-methoxyphenylsulfonamido)propanoic acid]: the “stability of crystal form, comparison of XRPD spectra (FIG. 4)” value (further milling and/or autoclaving) is “stable”. The “effect of subsequent autoclaving on polymorph by XRPD” value (milled, autoclaved, milled again, then autoclaved at 121° C. for 30 minutes) is “did not affect the claimed novel drug polymorph”.

For the compound `COc1ccc(S(=O)(=O)N[C@@H](CNc2nc(C)nc(N3CCC(c4ccc5c(n4)NCCC5)CC3)c2C)C(=O)O)cc1` [BOL-303050, (S)-3-(2,5-dimethyl-6-(4-(5,6,7,8-tetrahydro-1,8-naphthyridin-2-yl)piperidin-1-yl)pyrimidin-4-ylamino)-2-(4-methoxyphenylsulfonamido)propanoic acid], the “polymorphic change by XRPD on autoclaving” value (30 mg/ml suspension in PBS-0.15% Polysorbate 80, milled, autoclaved at 121° C. for 30 minutes (initial cycle)) is reported as “polymorphic changes occurred only during the initial autoclave cycle”. Moreover, under “1 mm zirconia milling beads, 5 times, 2 minutes each at 2400 rpm”, the “effect of milling on drug polymorph by XRPD” value was “did not affect the drug polymorph”.
